Assay results from patent US11628148B2, “Nail hardening composition and method of use” (WELLA OPERATIONS US, LLC, priority 2017, dated 2023).
Each block holds one compound with its values, some of them ahead of it.

How the values were obtained:
cow hoof samples = assay: Three-point bend test (flexural strength) of cow hoof samples immersed 24 hours in test solution; conditions: for FS (flexural strength): 24 h immersion; for % Increase (flexural strength): only samples thinner than 1.8 mm
Experimental: 1. […] Pack samples in vacuum bag. 2. […] 3. […] Pack samples in vacuum bag. 4. Three-Point Bend Test for Untreated and Treated Cow Hoof Samples • Perform using a Texture Analyzer TAXT Plus from Texture Technologies. • Three point bend test is conducted until sample fracture. • Flexural strength is calculated based on force at break for each sample. Results A 3-point bend test set-up was used to measure the break force of treated and untreated cow hoof slices with thickness ranging from 0.88 mm to 2.75 mm. The flexural strength was calculated for each sample, based on sample thickness and width. For each group, the average flexural strength and the standard deviation were calculated. The p-value for the effect significance was calculated for each treated group versus the corresponding baseline value using ANOVA. Outliers were eliminated using the modified Thompson Tau method. Baseline values were determined for groups of untreated samples. Because the hypothesis is that the crosslinker reacts with thiol groups, the effect of dithiothreitol (DTT), a disulfide reducing agent, was tested as well.

[1] = Behaviour of the test solution at the highest concentration prepared; format: physicochemical; conditions: 3.5% (w/w) BMH in dimethyl sulfoxide

Compound: O[C@H](CS)[C@H](O)CS (racemic) [DTT, dithiothreitol]
Effect on flexural strength (in words) (cow hoof samples; disulfide reducing agent, results not shown): no significant effect

Observation on the solution [1]: Gelification
Observation on the solution ([1]; listed as BMH): gelification
Compound: O=C1C=CC(=O)N1CCCCCCN1C(=O)C=CC1=O [Bismaleimidohexane, bismaleimidohexane]
% increase (flexural strength vs baseline) (cow hoof samples; 1% BMH in dimethyl sulfoxide): 9.7%
FS (flexural strength) (cow hoof samples; 1% by weight BMH in dimethyl sulfoxide): 158 N/mm2
% increase (flexural strength vs baseline) (cow hoof samples; 3% BMH in dimethyl sulfoxide): 8.3%
FS (flexural strength) (cow hoof samples; 3% by weight BMH in dimethyl sulfoxide): 156 N/mm2
Effect on flexural strength (in words) (cow hoof samples; BMH at 1% and 3%): non-significant increase

Compound: C=O [Formaldehyde, formaldehyde]
FS (flexural strength) (cow hoof samples; 1% by weight formaldehyde in ethanol, all samples): 141 N/mm2
% increase (flexural strength vs baseline) (cow hoof samples; 1% formaldehyde in ethanol, all samples): 20.5%
% Increase (flexural strength) (cow hoof samples; 1% formaldehyde): 22.2%
FS (flexural strength) (cow hoof samples; 3% by weight formaldehyde in ethanol, all samples): 132 N/mm2
% increase (flexural strength vs baseline) (cow hoof samples; 3% formaldehyde in ethanol, all samples): 12.8%
% Increase (flexural strength) (cow hoof samples; 3% formaldehyde): 15.4%
FS (flexural strength) (cow hoof samples; 5% by weight formaldehyde in ethanol, all samples): 134 N/mm2
% increase (flexural strength vs baseline) (cow hoof samples; 5% formaldehyde in ethanol, all samples): 14.5%
% Increase (flexural strength) (cow hoof samples; 5% formaldehyde): 20.5%

Compound: NCCCCCCN [Hexamethylene diamine, hexamethylene diamine]
FS (flexural strength) (cow hoof samples; 1% by weight hexamethylene diamine alone in ethanol (equal. to 3% H + M)): 132 N/mm2
% increase (flexural strength vs baseline) (cow hoof samples; 1% hexamethylene diamine alone in ethanol (equal. to 3% H + M)): 3.9%
FS (flexural strength) (cow hoof samples; 1.7% by weight hexamethylene diamine alone in ethanol (equal. to 5% H + M)): 149 N/mm2
% increase (flexural strength vs baseline) (cow hoof samples; 1.7% hexamethylene diamine alone in ethanol (equal. to 5% H + M)): 17.3%
FS (flexural strength) (cow hoof samples; 2.3% by weight hexamethylene diamine alone in ethanol (equal. to 7% H + M)): 122 N/mm2
% increase (flexural strength vs baseline) (cow hoof samples; 2.3% hexamethylene diamine alone in ethanol (equal. to 7% H + M)): −3.9%
Effect on flexural strength (in words) (cow hoof samples; HMD taken separately at 1.7%): borderline significant strengthening effect

Compound: O=C(O)/C=C\C(=O)O [Maleic Acid, maleic acid]
FS (flexural strength) (cow hoof samples; 3.3% by weight maleic acid alone in ethanol (equ. to 5% H + M)): 131 N/mm2
% increase (flexural strength vs baseline) (cow hoof samples; 3.3% maleic acid alone in ethanol (equ. to 5% H + M)): 3.1%
Effect on flexural strength (in words) (cow hoof samples; MA taken separately): does not seem to have any significant effect

Compound: Hexamethylene diamine/Maleic acid [Hexamethylene diamine + Maleic acid]
% increase (flexural strength vs baseline) (cow hoof samples; 1% HMD + MA in ethanol, all samples): 13.4%
% Increase (flexural strength) (cow hoof samples; 1% HMD + MA): 20.2%
FS (flexural strength) (cow hoof samples; 1% by weight HMD + MA (1:2) in ethanol, all samples): 144 N/mm2
% increase (flexural strength vs baseline) (cow hoof samples; 3% HMD + MA in ethanol, all samples): 17.3%
% Increase (flexural strength) (cow hoof samples; 3% HMD + MA): 24.2%
FS (flexural strength) (cow hoof samples; 3% by weight HMD + MA (1:2) in ethanol, all samples): 149 N/mm2
% increase (flexural strength vs baseline) (cow hoof samples; 5% HMD + MA in ethanol, all samples): 17.3%
% Increase (flexural strength) (cow hoof samples; 5% HMD + MA): 28.2%
FS (flexural strength) (cow hoof samples; 5% by weight HMD + MA (1:2) in ethanol, all samples): 149 N/mm2
% increase (flexural strength vs baseline) (cow hoof samples; 7% HMD + MA in ethanol, all samples): 3.9%
FS (flexural strength) (cow hoof samples; 7% by weight HMD + MA (1:2) in ethanol, all samples): 132 N/mm2
Effect on flexural strength (in words) (cow hoof samples; HMD + MA (1:2 ratio) at 3% and 5% (w/w)): significant increase
